In the supplement of paper PMC11997997:

Tests used:
[1] = test system: Mycobacterium tuberculosis CDC1551 (intracellular, in murine BMDM); assay: area under intracellular growth-inhibition dose-response curve (AUC (% inhibition x dose, relative)); higher = more potent; conditions: duration: 6 days; dose range: 0.13-80 uM, 8 points
Outline: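 Primary murine bone marrow-derived macrophages in 384-well opaque plates were infected 24 h after seeding with luciferase-expressing M. tuberculosis CDC1551 at multiplicity of infection 1 for 1 h. They were then treated with an 8-dose, 2.5-fold series (final 80–0.13 μM) for 6 days. Growth was read by Bright-Glo luciferin assay and normalised to a reference drug control and the lowest-concentration wells. The value is the area under the growth-inhibition dose–response curve, calculated in GraphPad Prism.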

[2] = test system: murine bone marrow-derived macrophages; assay: area under cytotoxicity dose-response curve (AUC (% cytotoxicity x dose, relative)); higher = more cytotoxic; conditions: duration: 6 days; dose range: 0.13-80 uM, 8 points
Outline: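 Using opaque 384-well plates, primary murine bone marrow-derived macrophages were treated for 6 days at 37 °C in 5% CO2 with an 8-point, 2.5-fold dilution series spanning final concentrations of 80–0.13 μM. After CellTiter-Glo (Promega) luminescence readout of viability, percent cytotoxicity was normalised to vehicle and positive control wells. The reported value is the area under the dose–response curve for cytotoxicity, derived in GraphPad Prism version 10.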

SMILES	area under intracellular growth-inhibition dose-response curve [1]	area under cytotoxicity dose-response curve [2]
COc1ccc2nc(C)cc(N/N=C/c3ccccc3)c2c1	136	97.6
CC(C)c1ccc(NC(=S)Nc2ccc3c[nH]nc3c2)cc1	271	< 0
Cc1cccc(N2CCN(Cc3ccc([N+](=O)[O-])o3)CC2)c1C	221	38.8
C=C1C(=O)O[C@@H]2C[C@@H](C)[C@@H]3C=CC(=O)[C@@]3(C)[C@@H](OC(C)=O)[C@H]12	46.3	118
Cc1ccccc1-n1c(C)cc(/C=N/NC(=O)c2ccncc2)c1C	214	< 0
C/C(CC(=O)Nc1ccccc1C#N)=N\NC(=O)c1ccncc1	229	98.9
CCCN(CCC)CC(O)Cn1cc(/C=C/C(=O)c2ccccc2)c2ccccc21 (configuration not stated)	226	9.39
CC(=O)OCC1=C(C(=O)O)N2C(=O)C(NC(=O)Cn3nc(C(F)F)c(Cl)c3C)C2SC1 (configuration not stated)	195	2.26
O=C(O)C(=O)O.O=[N+]([O-])c1ccc(N2CCN(Cc3ccc([N+](=O)[O-])o3)CC2)cc1	245	45.2
CCCCCCn1c(=O)c(C(=O)Nc2ncccc2C)c(O)c2ccccc21	237	47.2
Cc1c(C(=O)N(C)C)sc(NC(=O)c2cccc([N+](=O)[O-])c2)c1C#N	13.8	51.5
Cc1ccc2nc(-c3ccc(NC(=S)NC(=O)C(C)C)cc3)sc2c1	174	32.6
O=C(/C=C/c1ccccc1Cl)NCc1ccco1	174	79.7
C/C(=C\c1ccccc1)C(=O)NCc1ccco1	111	134
Cc1ccc(Cn2cc(-c3ccccc3)nn2)cc1	191	11.2
C/C(CC(=O)Nc1cccc(F)c1)=N\NC(=O)c1ccncc1	272	9.96
CCOc1ccccc1NC(=O)c1ccc2[nH]c(C)c(C)c2c1	192	6.53
CC(=O)c1c(C)[n+]([O-])c2cc(C)ccc2[n+]1[O-]	95.3	31.7
COc1ccc(C/C(C)=N/NC(=O)c2ccncc2)cc1	261	40.9
O=C(NCc1ccc2c(c1)OCO2)c1cccc(F)c1	222	< 0
CC(=O)c1c(C)[n+]([O-])c2ccccc2[n+]1[O-]	84.7	17.5
C/C(=N\NC(=O)c1ccncc1)C12CC3CC(CC(C3)C1)C2	239	97.9
O=C(N/N=C/c1c(F)c(F)c(F)c(F)c1F)c1cccc(S(=O)(=O)N2CCOCC2)c1	45.4	128
O=[N+]([O-])c1[c][c]c(Sc2[c][c][c][c][n+]2[O-])c2nonc12	48.7	119
CCCOc1ccc(C(=O)CCC(=O)NNC(=O)c2ccncc2)cc1	269	< 0
N=c1c2c(-c3ccccc3)c(-c3ccccc3)n(Cc3ccccc3)c2ncn1CCCn1ccnc1	48.2	49.3

SMILES	area under intracellular growth-inhibition dose-response curve [1]	area under cytotoxicity dose-response curve [2]
Nc1c2c(nc3sc4c(c13)CCCC4)CCCC2	125	77.7
NC(=S)N/N=C/c1c[nH]c2ccccc12	231	35.6
COc1cc(CNC23CC4CC(CC(C4)C2)C3)ccc1OCc1ccccc1.Cl	143	89.1
Cc1cc(/C=N/NC(N)=S)c(C)n1-c1ccc(Cl)c(Cl)c1	257	< 0
O=C(c1ccc([N+](=O)[O-])o1)N1CCN(c2nc3c(F)cc(F)cc3s2)CC1	20.8	161
O=P1(c2ccccc2)Nc2ccccc2N1c1ccccc1 (configuration not stated)	264	8.15
COc1cc(C(C)=NNC(=O)c2ccncc2)ccc1O	265	47.1
CCOc1ccc2oc(C(=O)OCC(=O)NCc3ccc(OC)cc3)c(C)c2c1	58.1	< 0
CC(C)Oc1ccc(/C=N/NC(N)=S)cc1	275	17.8
O.Sc1[nH]cnc2ncnc1-2	140	< 0
CCN(CC)CCN(C(=O)c1ccc2c(c1)OCCO2)c1nc2cc(C)cc(C)c2s1.Cl	246	8.98
O=C(COc1ccc(/C=N/NC(=O)c2ccncc2)cc1)Nc1ccccc1	266	34.4
COCCNc1c(-c2ccc(OC)cc2)nc2ccc(Cl)cn12	87.8	32.9
CCC(=O)NC(=S)Nc1ccc(NC(=O)c2ccccc2[N+](=O)[O-])cc1	267	32.7
COc1ccc(CN(C)C(=O)c2cccc(S(=O)(=O)N3CCCc4ccccc43)c2)c(OC)c1OC	144	16.4
COc1ccc(OC)c2sc(N3CCN(C(=O)c4ccc([N+](=O)[O-])s4)CC3)nc12	10.8	14.2
CN(CC(=O)Nc1ccc(OC(F)(F)F)cc1)C(=O)c1ccc(N2CCCC2=O)cc1	27.6	36.3
O=C(N/N=C/c1cccn1-c1ccccc1)c1ccncc1	251	57.4
Cc1ccc(/C=N/NC(=O)C2COc3ccccc3O2)s1 (configuration not stated)	196	< 0
CC(=O)c1cc(NC(=O)c2cccc(C(F)(F)F)c2)c(=O)oc1/C=C/N(C)C	194	64.4
C=C1c2cccc(O)c2C(=O)C2C(=O)[C@]3(O)C(=O)C(C(N)=O)C(=O)[C@@H](N(C)C)[C@@H]3[C@@H](O)[C@H]12.Cl (some centres not stated)	272	3.53
NC(=S)N/N=C/c1ccc(/C=N/NC(N)=S)cc1	258	20.6
CCC(C)N1CCC2(CC1)N=c1c3c(O)c4c(O)c(C)c5c(c4c1=N2)C(=O)[C@@](C)(OC=C[C@H](OC)[C@@H](C)[C@@H](OC(C)=O)[C@H](C)[C@H](O)[C@H](C)[C@@H](O)[C@@H](C)C=CC=C(C)C(=O)N3)O5 (some centres not stated)	253	86.3
CC(=O)O[C@H]1C[C@@]2(C)[C@@H](C[C@@H](O)[C@H]3[C@@]4(C)CC[C@@H](O)[C@@H](C)[C@@H]4CC[C@@]32C)/C1=C(\CCC=C(C)C)C(=O)O	206	< 0
COc1cccc(NC(=O)NC2CCCCCCC2)c1	162	103
